Results on three compounds are retold here after ChEMBL document CHEMBL5365522, “Discovery of potential novel TRPC5 inhibitors by virtual screening and bioassay” (Bioorg Med Chem, 2023).

The target of data set [1] is T1, Short transient receptor potential channel 5 (Homo sapiens) (UniProt Q9UL62).
T1 sequence (whole entry): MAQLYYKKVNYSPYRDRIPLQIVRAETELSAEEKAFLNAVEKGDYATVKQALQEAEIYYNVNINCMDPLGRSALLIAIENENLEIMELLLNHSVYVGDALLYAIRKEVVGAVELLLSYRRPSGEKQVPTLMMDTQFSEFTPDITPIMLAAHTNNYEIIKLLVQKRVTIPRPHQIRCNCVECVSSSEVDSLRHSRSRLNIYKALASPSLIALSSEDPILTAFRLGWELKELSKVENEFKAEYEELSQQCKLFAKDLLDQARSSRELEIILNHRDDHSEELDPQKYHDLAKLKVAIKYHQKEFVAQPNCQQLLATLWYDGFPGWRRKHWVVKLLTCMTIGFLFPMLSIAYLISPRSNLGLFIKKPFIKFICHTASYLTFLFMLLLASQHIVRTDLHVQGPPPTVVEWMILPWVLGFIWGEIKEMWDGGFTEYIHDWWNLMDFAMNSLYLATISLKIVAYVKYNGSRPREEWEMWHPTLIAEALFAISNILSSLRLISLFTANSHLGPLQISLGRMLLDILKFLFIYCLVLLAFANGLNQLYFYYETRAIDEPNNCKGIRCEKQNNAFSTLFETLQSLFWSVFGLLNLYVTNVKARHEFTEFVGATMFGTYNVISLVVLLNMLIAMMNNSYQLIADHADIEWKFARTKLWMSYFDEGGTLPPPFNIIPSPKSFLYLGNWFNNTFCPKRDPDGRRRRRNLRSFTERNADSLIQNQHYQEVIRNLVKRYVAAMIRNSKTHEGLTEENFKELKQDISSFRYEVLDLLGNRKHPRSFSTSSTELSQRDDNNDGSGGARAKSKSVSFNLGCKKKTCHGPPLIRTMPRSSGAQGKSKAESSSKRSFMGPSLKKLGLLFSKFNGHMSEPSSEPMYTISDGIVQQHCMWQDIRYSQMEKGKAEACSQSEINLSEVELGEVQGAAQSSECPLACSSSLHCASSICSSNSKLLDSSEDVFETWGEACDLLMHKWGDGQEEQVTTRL
The data set can be described thus: Inhibition of human TRPC5 expressed in HEK293T cells assessed as intracellular calcium influx at 30 uM measured after 30 mins by Fluo-4 AM dye based fluorescence analysis. The format is cell-based. (In general: Calcium assays in cells follow changes in intracellular calcium, usually with a dye or a luminescent sensor.)

In data set [2] the target is T2, Short transient receptor potential channel 5 (Homo sapiens, UniProt Q9UL62).
T2 sequence (Q9UL62 whole entry): T1 sequence (whole entry)
The data set can be described thus: Inhibition of human TRPC5 expressed in HEK293T cells assessed as intracellular calcium influx by measuring Ca2+ flow inhibition after 30 mins by Fluo-4 AM dye based fluorescence analysis. The data set is classed as cell-based.

Data set [3] relates to HEK-293T. The data set can be described thus: Cytotoxicity against human HEK293T cells expressing human TRPC5 assessed as reduction in cell viability at 100 uM incubated for 24 hrs by MTS assay. The data set is classed as toxicity, cell-based. (In general: Formazan colour is commonly taken as a measure of viable cells.)
Data set [4] has as its system HEK-293T. The data set is described as follows: Cytotoxicity against human HEK293T cells expressing human TRPC5 assessed as cell death incubated for 24 hrs by MTS assay. The data set is classed as toxicity, cell-based.

The structures appear in SMILES notation. Calls of active or inactive are those of the source. No cut-off for these calls is given here.

What is called IC50 is the concentration that inhibits the measured activity by half.

As to `O=C(Cc1cccc(F)c1)NCc1nnc2ccc(-c3ccc(F)cc3)nn12`, the inhibition result in data set [1] is “Active”. In addition, the half-maximal inhibitory concentration (IC50) in data set [2] was 10.2 µM. Besides, in data set [3], the Activity result is “Non-Toxic”.
With `CC(c1ccccc1)n1c(CCCO)nc2ccccc21` (stereo unspecified), in data set [1], the inhibition result is “Active”. Besides, the Activity result in data set [4] is “Toxic”.
Take `c1ccc(Cn2c(NCc3ccco3)nc3ccccc32)cc1`: the IC50 in data set [2] worked out at 14.9 µM.
